Source: US20260176232A1, “PROBENECID COMPOUNDS FOR THE TREATMENT OF INFLAMMASOME-MEDIATED DERMATOLOGICAL CONDITIONS” (Bacainn Biotherapeutics, Ltd., priority 2022, published 2026)

How the values were obtained:
[1] = system: AIM2 inflammasome; test: IL-1β secretion in macrophages challenged with poly dA:dT (FIG. 4C); assay type: cell-based, human; settings: BT032 20, 100 μM; 6 h
Source text: (§1) In vitro stimulation of human macrophages.

[2] = target: NLRC4 inflammasome (Mus musculus, UniProt Q3UP24); test: IL-1β secretion in macrophages challenged with Flagellin (FIG. 4C); assay type: cell-based, human; settings: BT032 20, 100 μM; 6 h
NLRC4 inflammasome, sequence (Q3UP24 whole entry): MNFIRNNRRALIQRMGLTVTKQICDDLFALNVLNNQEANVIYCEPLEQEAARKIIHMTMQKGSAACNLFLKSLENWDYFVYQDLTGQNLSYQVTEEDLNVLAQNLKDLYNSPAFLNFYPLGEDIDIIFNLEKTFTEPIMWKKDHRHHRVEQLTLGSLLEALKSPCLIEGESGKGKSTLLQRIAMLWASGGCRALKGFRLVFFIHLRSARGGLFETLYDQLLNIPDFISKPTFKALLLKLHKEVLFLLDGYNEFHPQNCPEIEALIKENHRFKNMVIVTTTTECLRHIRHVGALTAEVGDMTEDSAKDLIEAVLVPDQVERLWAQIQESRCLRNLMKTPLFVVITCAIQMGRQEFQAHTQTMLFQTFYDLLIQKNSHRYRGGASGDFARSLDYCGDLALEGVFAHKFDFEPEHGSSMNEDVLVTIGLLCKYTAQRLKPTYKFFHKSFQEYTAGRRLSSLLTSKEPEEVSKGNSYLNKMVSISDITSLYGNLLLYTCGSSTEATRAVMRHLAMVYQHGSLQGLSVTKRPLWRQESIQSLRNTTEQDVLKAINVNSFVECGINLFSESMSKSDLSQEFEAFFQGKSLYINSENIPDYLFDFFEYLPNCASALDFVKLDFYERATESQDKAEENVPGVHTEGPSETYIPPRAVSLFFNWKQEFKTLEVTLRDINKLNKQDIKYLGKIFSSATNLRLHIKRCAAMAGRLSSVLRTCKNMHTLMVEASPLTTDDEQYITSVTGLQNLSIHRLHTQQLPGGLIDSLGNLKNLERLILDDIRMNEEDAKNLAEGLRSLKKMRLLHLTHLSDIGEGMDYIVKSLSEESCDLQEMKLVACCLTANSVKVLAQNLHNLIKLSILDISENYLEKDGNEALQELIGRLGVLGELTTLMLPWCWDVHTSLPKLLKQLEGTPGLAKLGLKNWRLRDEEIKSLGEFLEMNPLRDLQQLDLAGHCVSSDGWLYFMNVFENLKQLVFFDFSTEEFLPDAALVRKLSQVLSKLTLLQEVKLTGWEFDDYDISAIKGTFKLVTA
Source text: as §1

[3] = system: NLRP1 inflammasome; test: IL-1β secretion in macrophages challenged with L18-MDP (FIG. 7); assay type: cell-based, human; settings: 20, 100, 350 μM, L18-MDP 100 μg/mL 16 hours, secreted IL-1β
Source text: as §1

[4] = system: anisomycin-induced psoriatic dermatitis; test: Anisomycin-induced psoriatic dermatitis, topical treatment of murine ear; parameters: species or system C57BL/6 mice; settings: mouse, in vivo
Source text: Psoriasis is a chronic inflammatory skin disease characterized by IL-17-mediated immune responses, and p38 is known to be highly activated in the psoriatic epidermis. In this example, a p38 activator, anisomycin, is applied daily to murine skin. The probenecid analogs of the present technology (e.g., BT032) are applied to murine psoriatic models topically or to human psoriatic skin specimens ex vivo. Mice. Eight- to 12-week old female mice are used in this study. All animals are of the C57BL/6 genetic background. Animals are maintained under specific pathogen-free conditions. Anisomycin treatment. Anisomycin solution (2 mg/mL in 99.5% ethanol) is applied to the inner and outer sides of a murine ear once daily at a dosage of 10 μL per side of the ear. Histological analyses. For histologic examination, ear skin samples are fixed with 10% formalin and embedded in paraffin. Sections along the median plane of the ear with a thickness of 5 μm are prepared and subjected to staining with hematoxylin and eosin (H&E). Images of two consecutive microscopic fields of H&E-stained sections are obtained using a digital microscope. Time course changes in ear thickness are measured. Thickness is measured daily before treatment.

[5] = system: lesional skin from patients with psoriasis; test: Psoriasis-related gene expression in psoriatic lesion biopsy specimens ex vivo; assay type: cell-based, human; settings: 500 ng/mL, 12 hours
Description: Human samples. Biopsy specimens of psoriatic lesions are obtained from about 10 patients after obtaining informed consent. Two adjacent biopsy specimens are taken from each patient. All specimens are cut at the upper dermis, and the epidermal side is used for the experiment. As a medium, HuMedia-KB2 (Kurabo) containing insulin, human epidermal growth factor, bovine pituitary extract, and gentamicin/amphotericin B is used, according to the manufacturer's protocol. One specimen is cultured with vehicle (DMSO), and the adjacent one was cultured with BT032 (500 ng/mL) for 12 hours.
RNA isolation and the quantitative RT-PCR analysis. Total RNA is isolated using Trizol (Invitrogen, Carlsbad, CA) or RNeasy kits (Qiagen, PL Venlo, Netherlands) according to the manufacturer's protocol. Complementary DNA is reverse transcribed using a Prime Script RT reagent kit (Takara Bio, Shiga, Japan). The quantitative RT-PCR is performed by monitoring the synthesis of double-stranded DNA during the various PCR cycles with SYBR Green I (Roche, Basel, Switzerland) and the LightCycler real-time PCR apparatus (Roche), according to the manufacturer's instructions. All primers are obtained from Greiner Japan (Tokyo, Japan).

`CCCN(CCC)S(=O)(=O)c1ccc(-c2ccc(CCCC(=O)O)cc2)cc1` [BT032, 4-(4′-(N,N-dipropylsulfamoyl)-[1,1′-biphenyl]-4-yl)butanoic acid] was tested, and the “AIM2 (poly dA:dT)-mediated inflammasome activation” value [1] was “no effect”, the “NLRC4 (Flagellin)-mediated inflammasome activation” value [2] was “no effect” and the “NLRP1 (L18-MDP)-induced inflammasome activation” value [3] was “dose-dependently inhibited”. The “ear thickness, scaly erythema, and histologic changes induced by anisomycin” value [4] was “attenuated” and the “expression levels of IL1B, IL6, IL23A, IL17A versus control specimens” value [5] was “lower expression levels”.
